Laboratory results taken from PMC7827406, “Structure–Activity Relationship (SAR) Study of Spautin-1 to Entail the Discovery of Novel NEK4 Inhibitors” (International Journal of Molecular Sciences, 2021).
Read-outs that look alike come from different tables or passages of the source.

What was measured:
Assay in all cases: biochemical
Set-up in all cases: Eurofins KinaseProfiler full panel at Km ATP, residual kinase activity (%) relative to DMSO
MST3(h) = molecular target: T1, MST3(h) (Homo sapiens, UniProt Q9Y6E0)
T1 construct: gene STK24
Method in brief: (§1)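 Compounds screened at 10 µM in radiometric kinase activity assays at Km ATP, reported as remaining kinase activity (%). A KINOMEscan competition-binding screen at 10 µM measured DNA-tagged kinase retained on immobilized active-site ligand by qPCR.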

Ret(h) = Ret(h) (Homo sapiens, UniProt P07949)
Method in brief: as §1

PKBα(h) = molecular target: T2, PKBα(h) (Homo sapiens, UniProt P31749)
T2 construct: gene AKT1
Method in brief: as §1

c-RAF(h) = molecular target: T3, c-RAF(h) (Homo sapiens, UniProt P04049)
T3 construct: gene RAF1
Method in brief: as §1

FGFR1(V561M)(h) = FGFR1(V561M)(h) (Homo sapiens, UniProt P11362, V561M)
Method in brief: as §1

AMPKα2(h) = molecular target: T4, AMPKα2(h) (Homo sapiens, UniProt P54646)
T4 construct: gene PRKAA2
Method in brief: as §1

Tie2(Y897S)(h) = molecular target: T5, Tie2(Y897S)(h) (Homo sapiens, UniProt Q02763, Y897S)
T5 construct: gene TEK
Method in brief: as §1

Yes(h) = molecular target: T6, Yes(h) (Homo sapiens, UniProt P07947)
T6 construct: gene YES1
Method in brief: as §1

Rsk1(h) = molecular target: T7, Rsk1(h) (Homo sapiens, UniProt Q15418)
T7 construct: gene RPS6KA1
Method in brief: as §1

NEK6(h) = NEK6(h) (Homo sapiens, UniProt Q9HC98)
Method in brief: as §1

LOK(h) = molecular target: T8, LOK(h) (Homo sapiens, UniProt O94804)
T8 construct: gene STK10
Method in brief: as §1

ROCK-II(r) = molecular target: T9, ROCK-II(r) (Rattus norvegicus, UniProt Q62868)
T9 construct: gene Rock2
Method in brief: as §1

Cdc7/cyclinB1(h) = Cdc7/cyclinB1(h) (Homo sapiens, UniProt O00311)
Method in brief: as §1

VRK1(h) = molecular target: T10, VRK1(h) (Homo sapiens, UniProt Q99986)
T10 sequence (Q99986 1-396): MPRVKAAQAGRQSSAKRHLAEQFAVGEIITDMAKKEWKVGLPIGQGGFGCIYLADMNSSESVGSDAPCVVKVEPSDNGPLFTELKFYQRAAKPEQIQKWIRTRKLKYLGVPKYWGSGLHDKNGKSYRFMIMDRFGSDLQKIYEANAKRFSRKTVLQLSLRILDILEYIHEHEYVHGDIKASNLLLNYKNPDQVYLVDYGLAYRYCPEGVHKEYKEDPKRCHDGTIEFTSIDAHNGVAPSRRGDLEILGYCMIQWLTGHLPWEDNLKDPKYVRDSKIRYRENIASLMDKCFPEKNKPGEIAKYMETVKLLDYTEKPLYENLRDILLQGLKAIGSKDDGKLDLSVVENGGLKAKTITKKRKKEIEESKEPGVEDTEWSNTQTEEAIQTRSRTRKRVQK
Method in brief: as §1

Wee1B(h) = molecular target: T11, Wee1B(h) (Homo sapiens, UniProt P0C1S8)
T11 construct: gene WEE2
Method in brief: as §1

Fyn(h) = Fyn(h) (Homo sapiens, UniProt P06241)
Method in brief: as §1

SRPK2(h) = SRPK2(h) (Homo sapiens, UniProt P78362)
Method in brief: as §1

[1] = read-out: Residual activity (%) 5at
[2] = read-out: Residual activity (%) 5as
[3] = read-out: Residual activity (%) 5ay
[4] = read-out: Residual activity (%) Spautin-1 5aa

T7 sequence (Q15418 whole entry): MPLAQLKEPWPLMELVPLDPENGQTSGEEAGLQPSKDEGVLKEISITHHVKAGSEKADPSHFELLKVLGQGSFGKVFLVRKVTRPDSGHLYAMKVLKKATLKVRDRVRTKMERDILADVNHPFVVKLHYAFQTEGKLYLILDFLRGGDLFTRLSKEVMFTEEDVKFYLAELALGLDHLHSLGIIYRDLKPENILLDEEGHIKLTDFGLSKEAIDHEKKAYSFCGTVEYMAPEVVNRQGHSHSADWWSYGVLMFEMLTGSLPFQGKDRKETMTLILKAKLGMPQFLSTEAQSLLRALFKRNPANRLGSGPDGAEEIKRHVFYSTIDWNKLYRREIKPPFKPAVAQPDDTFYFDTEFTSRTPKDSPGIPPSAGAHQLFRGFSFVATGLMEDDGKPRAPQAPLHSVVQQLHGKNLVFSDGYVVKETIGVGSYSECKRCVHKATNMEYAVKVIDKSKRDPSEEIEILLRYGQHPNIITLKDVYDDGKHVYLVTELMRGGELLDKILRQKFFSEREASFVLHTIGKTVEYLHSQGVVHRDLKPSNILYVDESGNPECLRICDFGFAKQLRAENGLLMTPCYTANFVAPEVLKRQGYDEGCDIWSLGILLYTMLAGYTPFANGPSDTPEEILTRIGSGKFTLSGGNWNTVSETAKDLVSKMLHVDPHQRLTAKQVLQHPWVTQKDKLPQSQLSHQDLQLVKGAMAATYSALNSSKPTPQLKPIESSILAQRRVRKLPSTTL
T3 sequence (P04049 whole entry): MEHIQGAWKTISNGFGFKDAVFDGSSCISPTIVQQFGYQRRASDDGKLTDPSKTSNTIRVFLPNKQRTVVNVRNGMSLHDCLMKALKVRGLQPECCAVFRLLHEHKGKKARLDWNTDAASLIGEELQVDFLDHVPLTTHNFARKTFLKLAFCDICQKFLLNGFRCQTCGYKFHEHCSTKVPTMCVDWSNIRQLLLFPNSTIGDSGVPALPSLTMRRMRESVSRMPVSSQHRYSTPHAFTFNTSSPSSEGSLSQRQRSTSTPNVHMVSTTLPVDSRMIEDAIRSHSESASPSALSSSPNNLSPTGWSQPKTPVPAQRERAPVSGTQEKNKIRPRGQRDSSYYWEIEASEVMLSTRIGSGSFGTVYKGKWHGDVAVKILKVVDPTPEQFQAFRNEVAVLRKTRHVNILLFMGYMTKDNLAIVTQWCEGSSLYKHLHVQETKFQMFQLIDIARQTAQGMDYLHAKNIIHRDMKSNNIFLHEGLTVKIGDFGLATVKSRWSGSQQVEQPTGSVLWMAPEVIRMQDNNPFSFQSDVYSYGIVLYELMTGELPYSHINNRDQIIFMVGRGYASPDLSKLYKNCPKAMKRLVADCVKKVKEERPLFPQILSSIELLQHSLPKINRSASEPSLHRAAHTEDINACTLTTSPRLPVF
T8 sequence (O94804 whole entry): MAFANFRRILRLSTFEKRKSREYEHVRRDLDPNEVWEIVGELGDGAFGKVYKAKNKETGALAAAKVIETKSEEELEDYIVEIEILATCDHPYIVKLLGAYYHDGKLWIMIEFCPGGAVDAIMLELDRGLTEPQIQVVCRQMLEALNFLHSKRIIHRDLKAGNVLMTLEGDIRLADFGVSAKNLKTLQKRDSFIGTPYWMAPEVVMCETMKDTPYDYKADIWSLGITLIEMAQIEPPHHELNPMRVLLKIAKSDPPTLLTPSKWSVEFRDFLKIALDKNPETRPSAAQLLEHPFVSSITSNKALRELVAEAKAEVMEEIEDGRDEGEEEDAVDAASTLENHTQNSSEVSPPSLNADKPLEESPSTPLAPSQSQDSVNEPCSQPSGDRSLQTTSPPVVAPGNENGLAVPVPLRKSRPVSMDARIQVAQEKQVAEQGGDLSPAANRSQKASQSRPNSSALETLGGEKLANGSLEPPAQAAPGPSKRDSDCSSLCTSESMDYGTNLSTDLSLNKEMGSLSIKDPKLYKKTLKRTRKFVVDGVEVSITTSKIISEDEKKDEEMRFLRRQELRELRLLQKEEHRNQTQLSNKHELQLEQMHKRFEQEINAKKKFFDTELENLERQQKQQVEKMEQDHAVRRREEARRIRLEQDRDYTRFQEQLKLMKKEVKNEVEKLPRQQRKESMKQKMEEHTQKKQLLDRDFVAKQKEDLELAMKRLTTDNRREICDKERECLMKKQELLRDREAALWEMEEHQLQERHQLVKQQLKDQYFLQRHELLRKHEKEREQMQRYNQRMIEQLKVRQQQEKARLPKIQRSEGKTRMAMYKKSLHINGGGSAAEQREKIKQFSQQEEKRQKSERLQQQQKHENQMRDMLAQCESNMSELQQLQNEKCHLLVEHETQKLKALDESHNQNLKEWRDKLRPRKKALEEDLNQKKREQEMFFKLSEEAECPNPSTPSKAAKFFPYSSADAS
T11 sequence (P0C1S8 whole entry): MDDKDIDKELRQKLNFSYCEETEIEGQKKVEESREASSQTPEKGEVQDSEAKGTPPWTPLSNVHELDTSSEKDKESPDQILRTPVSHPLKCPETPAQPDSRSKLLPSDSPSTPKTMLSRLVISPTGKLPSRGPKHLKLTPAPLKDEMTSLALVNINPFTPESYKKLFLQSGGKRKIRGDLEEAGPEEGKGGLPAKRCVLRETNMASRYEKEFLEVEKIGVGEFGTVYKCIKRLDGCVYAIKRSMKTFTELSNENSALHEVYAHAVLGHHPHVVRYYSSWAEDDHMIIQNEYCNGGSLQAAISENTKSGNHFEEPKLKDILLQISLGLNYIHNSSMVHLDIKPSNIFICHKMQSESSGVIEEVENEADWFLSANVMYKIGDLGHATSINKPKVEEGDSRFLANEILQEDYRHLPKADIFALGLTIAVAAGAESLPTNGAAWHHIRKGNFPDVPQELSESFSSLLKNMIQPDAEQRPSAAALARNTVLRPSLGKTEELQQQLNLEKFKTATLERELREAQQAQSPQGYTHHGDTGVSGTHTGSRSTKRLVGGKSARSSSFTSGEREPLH
Chain of Fyn(h) (P06241 whole entry): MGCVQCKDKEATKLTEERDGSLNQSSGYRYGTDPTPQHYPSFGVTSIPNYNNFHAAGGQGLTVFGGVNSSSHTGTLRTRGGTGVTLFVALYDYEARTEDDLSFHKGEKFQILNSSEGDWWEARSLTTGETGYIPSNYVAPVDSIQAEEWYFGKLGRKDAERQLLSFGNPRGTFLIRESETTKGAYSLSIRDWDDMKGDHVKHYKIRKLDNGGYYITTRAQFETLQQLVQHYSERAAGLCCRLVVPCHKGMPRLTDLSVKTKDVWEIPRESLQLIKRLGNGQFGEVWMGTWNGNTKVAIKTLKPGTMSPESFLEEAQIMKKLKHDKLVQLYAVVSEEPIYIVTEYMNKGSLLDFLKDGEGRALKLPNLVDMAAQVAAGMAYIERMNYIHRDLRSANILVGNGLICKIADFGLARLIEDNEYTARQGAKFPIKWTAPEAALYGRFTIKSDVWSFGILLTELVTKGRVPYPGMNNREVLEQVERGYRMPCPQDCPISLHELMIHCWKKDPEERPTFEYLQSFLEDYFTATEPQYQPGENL
T6 sequence (P07947 whole entry): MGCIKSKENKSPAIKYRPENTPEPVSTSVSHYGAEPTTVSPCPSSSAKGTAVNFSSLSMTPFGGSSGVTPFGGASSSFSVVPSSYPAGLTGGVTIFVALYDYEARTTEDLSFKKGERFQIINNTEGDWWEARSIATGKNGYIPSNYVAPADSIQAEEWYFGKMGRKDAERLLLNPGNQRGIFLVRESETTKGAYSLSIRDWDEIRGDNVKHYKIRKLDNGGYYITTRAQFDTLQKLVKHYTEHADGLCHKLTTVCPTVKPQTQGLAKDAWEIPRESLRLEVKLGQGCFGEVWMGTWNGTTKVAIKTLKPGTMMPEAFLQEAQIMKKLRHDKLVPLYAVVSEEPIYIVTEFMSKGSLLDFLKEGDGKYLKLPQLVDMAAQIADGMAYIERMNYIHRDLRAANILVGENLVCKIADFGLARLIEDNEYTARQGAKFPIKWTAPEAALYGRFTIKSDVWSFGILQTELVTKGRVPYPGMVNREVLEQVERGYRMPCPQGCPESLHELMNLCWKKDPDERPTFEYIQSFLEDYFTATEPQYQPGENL
Chain of NEK6(h) (Q9HC98 whole entry): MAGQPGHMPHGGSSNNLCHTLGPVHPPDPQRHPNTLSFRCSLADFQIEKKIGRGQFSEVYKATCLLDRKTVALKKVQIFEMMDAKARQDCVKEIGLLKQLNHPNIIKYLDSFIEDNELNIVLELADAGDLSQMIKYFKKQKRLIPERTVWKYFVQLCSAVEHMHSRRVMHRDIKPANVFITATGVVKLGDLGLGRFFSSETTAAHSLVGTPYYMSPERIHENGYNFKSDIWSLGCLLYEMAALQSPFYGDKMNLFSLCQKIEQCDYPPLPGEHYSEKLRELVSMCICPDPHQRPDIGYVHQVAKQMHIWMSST
Chain of SRPK2(h) (P78362 whole entry): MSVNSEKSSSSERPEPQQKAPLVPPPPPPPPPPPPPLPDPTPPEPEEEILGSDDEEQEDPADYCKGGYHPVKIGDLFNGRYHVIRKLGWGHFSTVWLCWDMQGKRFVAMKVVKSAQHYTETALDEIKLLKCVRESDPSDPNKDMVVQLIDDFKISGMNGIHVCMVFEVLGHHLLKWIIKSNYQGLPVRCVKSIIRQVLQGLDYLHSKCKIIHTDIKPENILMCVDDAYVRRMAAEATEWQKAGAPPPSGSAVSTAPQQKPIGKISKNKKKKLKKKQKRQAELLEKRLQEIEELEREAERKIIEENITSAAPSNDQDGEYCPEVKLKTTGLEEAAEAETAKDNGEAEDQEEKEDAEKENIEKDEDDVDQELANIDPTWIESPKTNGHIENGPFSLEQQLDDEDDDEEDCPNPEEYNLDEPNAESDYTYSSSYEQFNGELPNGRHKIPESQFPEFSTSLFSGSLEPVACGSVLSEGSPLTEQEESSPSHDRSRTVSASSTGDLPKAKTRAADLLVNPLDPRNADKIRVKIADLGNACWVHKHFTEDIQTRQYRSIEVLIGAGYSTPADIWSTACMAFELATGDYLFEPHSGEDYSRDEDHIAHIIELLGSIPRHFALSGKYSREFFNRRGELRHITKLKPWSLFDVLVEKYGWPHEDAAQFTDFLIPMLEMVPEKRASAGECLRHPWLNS

Question: Which remaining activity at 10 µM (MST3(h); [1]) does the source give for Fc1ccc2ncnc(NCCc3ccc(Cl)cc3)c2c1 [5at, N-[2-(4-Chlorophenyl)Ethyl]-6-Fluoro-4-Quinazolinamine] here?
Answer: Its remaining activity at 10 µM is 74%.

Question: And the remaining activity at 10 µM (Ret(h); [1])?
Answer: Its remaining activity at 10 µM is 62%.

Question: And the remaining activity at 10 µM (PKBα(h); [1])?
Answer: The remaining activity at 10 µM was 89%.

Question: And the remaining activity at 10 µM (c-RAF(h); [1])?
Answer: The remaining activity at 10 µM was 117%.

Question: And the remaining activity at 10 µM (FGFR1(V561M)(h); [1])?
Answer: Its remaining activity at 10 µM is 95%.

Question: What about the remaining activity at 10 µM (AMPKα2(h); [1]) of the same molecule?
Answer: The remaining activity at 10 µM was 109%.

Question: What about the remaining activity at 10 µM (Tie2(Y897S)(h); [1]) of the same molecule?
Answer: The remaining activity at 10 µM was 85%.

Question: What about the remaining activity at 10 µM (Yes(h); [1]) of the same molecule?
Answer: Its remaining activity at 10 µM is 84%.

Question: What about the remaining activity at 10 µM (Rsk1(h); [1]) of the same molecule?
Answer: Its remaining activity at 10 µM is 103%.

Question: And the remaining activity at 10 µM (NEK6(h); [1])?
Answer: The remaining activity at 10 µM was 79%.

Question: What about the remaining activity at 10 µM (LOK(h); [1]) of the same molecule?
Answer: The remaining activity at 10 µM was 87%.

Question: And the remaining activity at 10 µM (ROCK-II(r); [1])?
Answer: Its remaining activity at 10 µM is 103%.

Question: What about the remaining activity at 10 µM (Cdc7/cyclinB1(h); [1]) of the same molecule?
Answer: The remaining activity at 10 µM was 76%.

Question: What about the remaining activity at 10 µM (VRK1(h); [1]) of the same molecule?
Answer: Its remaining activity at 10 µM is 79%.

Question: What about the remaining activity at 10 µM (Wee1B(h); [1]) of the same molecule?
Answer: The remaining activity at 10 µM was 100%.

Question: What about the remaining activity at 10 µM (Fyn(h); [1]) of the same molecule?
Answer: The remaining activity at 10 µM was 75%.

Question: What about the remaining activity at 10 µM (SRPK2(h); [1]) of the same molecule?
Answer: Its remaining activity at 10 µM is 104%.

Question: Fc1ccc(CCNc2ncnc3ccc(F)cc23)cc1 [5as, 6-Fluoro-N-[2-(4-Fluorophenyl)Ethyl]-4-Quinazolinamine] was tested. Which remaining activity at 10 µM (MST3(h); [2]) did it give?
Answer: The remaining activity at 10 µM was 89%.

Question: And the remaining activity at 10 µM (Ret(h); [2])?
Answer: The remaining activity at 10 µM was 99%.

Question: And the remaining activity at 10 µM (PKBα(h); [2])?
Answer: The remaining activity at 10 µM was 98%.

Question: And the remaining activity at 10 µM (c-RAF(h); [2])?
Answer: The remaining activity at 10 µM was 114%.

Question: And the remaining activity at 10 µM (FGFR1(V561M)(h); [2])?
Answer: Its remaining activity at 10 µM is 100%.

Question: What about the remaining activity at 10 µM (AMPKα2(h); [2]) of the same molecule?
Answer: The remaining activity at 10 µM was 108%.

Question: What about the remaining activity at 10 µM (Tie2(Y897S)(h); [2]) of the same molecule?
Answer: The remaining activity at 10 µM was 94%.

Question: What about the remaining activity at 10 µM (Yes(h); [2]) of the same molecule?
Answer: Its remaining activity at 10 µM is 86%.

Question: What about the remaining activity at 10 µM (Rsk1(h); [2]) of the same molecule?
Answer: Its remaining activity at 10 µM is 110%.

Question: And the remaining activity at 10 µM (NEK6(h); [2])?
Answer: Its remaining activity at 10 µM is 94%.

Question: What about the remaining activity at 10 µM (LOK(h); [2]) of the same molecule?
Answer: The remaining activity at 10 µM was 81%.

Question: And the remaining activity at 10 µM (ROCK-II(r); [2])?
Answer: The remaining activity at 10 µM was 105%.

Question: And the remaining activity at 10 µM (Cdc7/cyclinB1(h); [2])?
Answer: Its remaining activity at 10 µM is 79%.

Question: And the remaining activity at 10 µM (VRK1(h); [2])?
Answer: The remaining activity at 10 µM was 82%.

Question: And the remaining activity at 10 µM (Wee1B(h); [2])?
Answer: The remaining activity at 10 µM was 99%.

Question: And the remaining activity at 10 µM (Fyn(h); [2])?
Answer: The remaining activity at 10 µM was 61%.

Question: And the remaining activity at 10 µM (SRPK2(h); [2])?
Answer: Its remaining activity at 10 µM is 87%.

Question: With COc1ccc2ncnc(Nc3cccc(F)c3)c2c1 [5ay, N-(3-Fluorophenyl)-6-Methoxy-4-Quinazolinamine] as the molecule, how does the remaining activity at 10 µM (MST3(h); [3]) read?
Answer: The remaining activity at 10 µM was 86%.

Question: And the remaining activity at 10 µM (Ret(h); [3])?
Answer: The remaining activity at 10 µM was 43%.

Question: And the remaining activity at 10 µM (PKBα(h); [3])?
Answer: Its remaining activity at 10 µM is 88%.

Question: And the remaining activity at 10 µM (c-RAF(h); [3])?
Answer: The remaining activity at 10 µM was 102%.

Question: What about the remaining activity at 10 µM (FGFR1(V561M)(h); [3]) of the same molecule?
Answer: Its remaining activity at 10 µM is 108%.

Question: And the remaining activity at 10 µM (AMPKα2(h); [3])?
Answer: Its remaining activity at 10 µM is 97%.

Question: What about the remaining activity at 10 µM (Tie2(Y897S)(h); [3]) of the same molecule?
Answer: The remaining activity at 10 µM was 78%.

Question: And the remaining activity at 10 µM (Yes(h); [3])?
Answer: Its remaining activity at 10 µM is 72%.

Question: And the remaining activity at 10 µM (Rsk1(h); [3])?
Answer: The remaining activity at 10 µM was 116%.

Question: And the remaining activity at 10 µM (NEK6(h); [3])?
Answer: Its remaining activity at 10 µM is 91%.

Question: What about the remaining activity at 10 µM (LOK(h); [3]) of the same molecule?
Answer: Its remaining activity at 10 µM is 35%.

Question: What about the remaining activity at 10 µM (ROCK-II(r); [3]) of the same molecule?
Answer: Its remaining activity at 10 µM is 98%.

Question: And the remaining activity at 10 µM (Cdc7/cyclinB1(h); [3])?
Answer: Its remaining activity at 10 µM is 73%.

Question: And the remaining activity at 10 µM (VRK1(h); [3])?
Answer: The remaining activity at 10 µM was 89%.

Question: What about the remaining activity at 10 µM (Wee1B(h); [3]) of the same molecule?
Answer: Its remaining activity at 10 µM is 106%.

Question: What about the remaining activity at 10 µM (Fyn(h); [3]) of the same molecule?
Answer: The remaining activity at 10 µM was 66%.

Question: And the remaining activity at 10 µM (SRPK2(h); [3])?
Answer: The remaining activity at 10 µM was 80%.

Question: How did the remaining activity at 10 µM (MST3(h); [4]) turn out when Fc1ccc(CNc2ncnc3ccc(F)cc23)cc1 [5aa, 6-Fluoro-N-(4-fluorobenzyl)-4-Quinazolinamine] was run?
Answer: Its remaining activity at 10 µM is 80%.

Question: And the remaining activity at 10 µM (Ret(h); [4])?
Answer: Its remaining activity at 10 µM is 69%.

Question: And the remaining activity at 10 µM (PKBα(h); [4])?
Answer: Its remaining activity at 10 µM is 86%.

Question: What about the remaining activity at 10 µM (c-RAF(h); [4]) of the same molecule?
Answer: Its remaining activity at 10 µM is 110%.

Question: And the remaining activity at 10 µM (FGFR1(V561M)(h); [4])?
Answer: The remaining activity at 10 µM was 123%.

Question: And the remaining activity at 10 µM (AMPKα2(h); [4])?
Answer: Its remaining activity at 10 µM is 108%.

Question: And the remaining activity at 10 µM (Tie2(Y897S)(h); [4])?
Answer: Its remaining activity at 10 µM is 88%.

Question: And the remaining activity at 10 µM (Yes(h); [4])?
Answer: Its remaining activity at 10 µM is 92%.

Question: What about the remaining activity at 10 µM (Rsk1(h); [4]) of the same molecule?
Answer: The remaining activity at 10 µM was 102%.

Question: And the remaining activity at 10 µM (NEK6(h); [4])?
Answer: The remaining activity at 10 µM was 103%.

Question: What about the remaining activity at 10 µM (LOK(h); [4]) of the same molecule?
Answer: Its remaining activity at 10 µM is 91%.

Question: And the remaining activity at 10 µM (ROCK-II(r); [4])?
Answer: The remaining activity at 10 µM was 90%.

Question: And the remaining activity at 10 µM (Cdc7/cyclinB1(h); [4])?
Answer: Its remaining activity at 10 µM is 92%.

Question: What about the remaining activity at 10 µM (VRK1(h); [4]) of the same molecule?
Answer: The remaining activity at 10 µM was 94%.

Question: And the remaining activity at 10 µM (Wee1B(h); [4])?
Answer: Its remaining activity at 10 µM is 95%.

Question: What about the remaining activity at 10 µM (Fyn(h); [4]) of the same molecule?
Answer: The remaining activity at 10 µM was 63%.

Question: What about the remaining activity at 10 µM (SRPK2(h); [4]) of the same molecule?
Answer: Its remaining activity at 10 µM is 80%.
